Earlier results, collected in patent publication US6428772B1, “Acne treatment composition with cooling effect” (Blistex Inc., priority 2001, dated 2002).
Read-outs that look alike come from different tables or passages of the source.

How the values were obtained:
[1] = not given; remark: listed apart in the source
[2] = test system: histamine induced itching; details: Neuroscience Letters 1995, 187:3, pp. 157-160

Row | Compound | solubility in water (water) | solubility in alcohol [1] | pH of the solution produced (1 gram in about 460 ml of water) | volume of water dissolving 1 gram (1 gram, water, room temperature) | solubility in water (water, room temperature) | volume of alcohol dissolving 1 gram ([1]; 1 gram) | effect on histamine induced itching [2]
1 | O=C(OOC(=O)c1ccccc1)c1ccccc1 [Benzoyl peroxide, benzoyl peroxide] | sparingly soluble | sparingly soluble |  |  |  |  | 
2 | O=C(O)c1ccccc1O [Salicylic acid, salicylic acid] | sparingly soluble |  | 2.4 | about 460 ml | about 0.2 % by weight | about 2.7 ml | 
3 | CC1CCC(C(C)C)C(O)C1 (centres unmarked) [menthol] |  |  |  |  |  |  | effective
